Source: patent publication US20210275480A1, “COMPOSITIONS AND METHODS FOR THE REDUCTION OR TREATMENT OF FIBROSIS” (AXCELLA HEALTH INC., priority 2018, published 2021)

Test system: FATZO mice (NASH)
Assay: FATZO mouse western diet + fructose NASH model (Example 6): body and liver weight, liver histology, NAS, fibrosis, Sirius Red
Type: in vivo
Details: WDF-fed FATZO mice
Source text: In one example, the effects of […] and related amino acid compositions in the obesity, metabolism-driven non-alcoholic steatohepatitis (NASH) in FATZO mouse model was examined.
NASH was induced in 60 male FATZO mice by a western diet (Research Diet #D12079B; fat 40% kcal, protein 17% kcal, carbohydrate 43% kcal) supplemented with 5% fructose in the drinking water (WDF) during a 16 week induction phase. Diets and water were available ad libitum. Littermate control male FATZO mice fed with a control diet (n=6, Purina #5008; fat 17% kcal, protein 27% kcal, carbohydrate 56% kcal) and sterile water were set up for control purpose. Mice were housed in plastic cages with microisolator. Sterilized bedding was replaced once a week. Mice were housed three per cage and maintained on a twelve hour light cycle throughout study duration. Room temperature was monitored daily and maintained at 22-25° C. Body weight was recorded every week during the induction phase.
Following 16 weeks diet induction, 6 mice remained on control diet (group 1, Control) while 60 induced mice were randomized on body weight and plasma glucose (fed) for assignment to the following treatments. FATZO mice were administered with test articles starting at 16 weeks post western diet NASH induction for 4 weeks. Test articles were administered by oral gavage. Animals were euthanized at 20 weeks post western diet NASH induction, and tissues were harvested for analysis.
[…], […]+G, LRQNAC, and OCA (Advanced ChemBlocks, Inc.), incipient, and water for irrigation were provided by Axcella Health, Inc. 0.5% Methylcellulose was provided by CrownBio, Inc. Dosing solutions were prepared according to Appendix 1. […] Obeticholic acid (OCA) was suspended in 0.5% methylcellulose in water for irrigation. All test articles were stored refrigerated. TA compounds were provided in frozen powder form by the sponsor. Dosing was continued for 4 weeks.
Leucine dosages of […]+G and LRQNAC were matched to that of […].
[…], […]+G, LRQNAC, OCA and Vehicle were administered by oral gavage at a volume of 10 mL/kg throughout the study. Dosages were calculated by daily body weight. […], […]+G, LRQNAC, and Vehicle were administered twice per day (BID), while OCA was administered once a day (QD) in the morning. Mice receiving OCA once per day (QD), and one vehicle QD. Doses were administered by oral gavage at 0700 and 1800 by oral gavage for 4 weeks.
The viability, clinical signs and behavior were monitored daily. Body weight was recorded daily during the dosing period. Blood samples were collected weekly in the AM (0700) via tail clip for glucose measurement (StatStrip glucometer).
Animals were anesthetized with CO2 inhalation and exsanguinated via cardiac puncture for euthanasia. Terminal blood samples (K2EDTA) were obtained by cardiac puncture in anesthetized animals at termination. Samples were provided frozen to Axcella Health. Organ weights (total liver, gonadal fat pads) were recorded. Pancreas, and small intestine and gonadal fat pads were fixed in 10% Buffered Formalin and prepared as directed in protocol. A section of small intestine, gonadal fat pad and liver were also snap frozen in liquid nitrogen and shipped to the sponsor.
The liver tissues were fixed in Bouin's solution at 4° C. for 24 hours followed by baths of standard concentrations of alcohol then xylene to prepare the tissues for paraffin embedding. After being embedded in paraffin and cooled, five-micron sections were cut and stained for routine H&E and Picric Sirius Red. A section of both right and left lobes of the livers were frozen in OCT for analysis of lipid content with Oil-Red-) staining. The Aperio whole slide digital imaging system (Scan Scope CS, Vista, Calif.) was used for imaging. All slides were imaged at 20×. The scan time ranged from 1.5 minutes to a maximum time of 2.25 minutes. […]

[1] = OCA oral gavage QD, 4 weeks, mean ± SEM

**Q.** Which results are given for `CC[C@H]1[C@@H](O)[C@@H]2[C@H](CC[C@]3(C)[C@@H]([C@H](C)CCC(=O)O)CC[C@@H]23)[C@@]2(C)CC[C@@H](O)C[C@@H]12` [OCA, 6α-ethyl-chenodeoxycholic acid]?
**A.** Fibrosis (liver fibrosis score) [1]: 0.67 ± 0.167; Liver Pathology: Inflammation [1]: 1.0 ± 0.0; Liver Pathology: NAS [1]: 3.72 ± 0.147; Sirius Red (collagen staining) [1]: 1.59 ± 0.36; Liver Pathology: Ballooning (OCA oral gavage QD, 4 weeks, score 0-2, mean ± SEM): 0.94 ± 0.056; Liver Pathology: Steatosis (OCA oral gavage QD, 4 weeks, score 0-3, mean ± SEM): 1.78 ± 0.147; Body weight change compared to baseline (4 weeks oral, LIVRQNAC 3000 mg/kg, LIVRQNAC+G 3885 mg/kg, LRQNAC 2469 mg/kg BID, OCA 30 mg/kg/day QD): −3.9±1.5%; Liver weight (% body weight) (4 weeks, LIVRQNAC 3000 mg/kg, LIVRQNAC+G 3885 mg/kg, LRQNAC 2469 mg/kg, OCA 30 mg/kg/day): 6.81±0.2 % body weight
